Measurements from the SangsterLogP compilation.

What was measured:
[1] = method code SF-AS, from DOI: 10.5012/bkcs.2007.28.7.1183
[2] = method code SF-CR+AS, from Korenman, I.; Tishchenko, M.; Kombarova, A. (1977). Distribution of dihydroxynaphthalenes between higher alcohols and water. Zh. Prikl. Khim., 50(4)899-901.; settings: pH 2.0
[3] = method code SF-AS, from DOI: 10.1139/y89-042, PMID: 2547502; settings: pH 7.4
[4] = method code SF-AS, from DOI: 10.1021/jm00069a002, PMID: 8355246; settings: pH 7.4
[5] = not given; remark: listed apart in the source
[6] = not given; remark: listed apart in the source
[7] = method code SF-HPLC, from DOI: 10.1016/0378-5173(88)90220-7; settings: pH 7.4
[8] = method code SF-AS, from DOI: 10.1016/s0021-9673(01)87148-x, PMID: 1744207; settings: pH 3.4
[9] = method code SF-AS, from DOI: 10.1111/j.2042-7158.1984.tb04385.x, PMID: 6145771; settings: pH 9.2
[10] = method code SF-AS, from DOI: 10.1016/j.jct.2016.12.034; settings: pH 7.4
[11] = method code G-HPLC, from DOI: 10.6028/nbs.ir.81-2406
[12] = method code SF, from DOI: 10.1021/jm00217a007, PMID: 17751; settings: pH 9.0
[13] = method code SF-HPLC, from DOI: 10.1021/jm00109a018, PMID: 2033591; settings: pH 7.0
[14] = method code SF-AS, from DOI: 10.1021/jm00047a013, PMID: 7932583
[15] = method code …, from Wang, X.; Song, H. (1996). Determination of octanol-water partition coefficients of organic pollutants by using the dynamic coupled-column liquid chromatographic technique. Transactions of Tianjin …
[16] = method code SF-GLC, from DOI: 10.1021/je970069v
[17] = method code SF-AS, from DOI: 10.1016/s0378-5173(98)00405-0, PMID: 10089287; settings: pH 7.4
[18] = method code SF, from DOI: 10.1248/cpb.33.282, PMID: 4006019; settings: pH 1.0
[19] = not given; remark: listed apart in the source
[20] = method code SF-AS, from Korenman, Y.; Pazynin, T. (1972). Distribution of nitrosonaphthols between organic solvents and water. J. anal. chem. USSR, 27(4)723-725.; settings: pH 2.0
[21] = not given; remark: listed apart in the source
[22] = not given; remark: listed apart in the source
[23] = not given; remark: listed apart in the source
[24] = method code SF, from PMID: 23342302; settings: pH 7.4
[25] = method code SF-AS, from DOI: 10.1007/bf01067967, PMID: 3820093; settings: pH 7.5
[26] = method code SF-RC, from Audran, M.; Chanal, J.; Marignan, R.; Cousse, H. (1984). Correlations between structure and pharmacokinetic parameters in a series of cresotinamides. International Journal of Pharmaceutics, …; settings: pH 1.0
[27] = method code SF-CR, from DOI: 10.1042/bj1780443, PMID: 109087; settings: pH 7.4
[28] = method code SF, from DOI: 10.1515/bc.2002.085, PMID: 12108546
[29] = method code SF-AS, from DOI: 10.1016/s0045-6535(00)00181-8, PMID: 11272912
[30] = method code SF-AS, from DOI: 10.1016/0045-6535(95)00267-c
[31] = method code SF-HPLC, from Blakemore, C.; Brown, H.; Durant, J.; Emmett, C.; Ganellin, R.; Parsons, E.; Rasmussen, C. (1980). SK&F 92994: a new histamine H2-receptor antagonist. COMMUNICATIONS: Part II. Br. J. Pharmacol., …
[32] = method code SF-AS, from DOI: 10.1021/es00082a014; settings: pH 7.0
[33] = method code SF-GLC, from DOI: 10.1007/bf00212402, PMID: 7663085
[34] = method code SF-AS, from PMID: 6692390; settings: pH 4.0
[35] = method code SF-GLC, from DOI: 10.1016/0147-6513(82)90020-3, PMID: 7106034
[36] = method code SF-AS, from DOI: 10.1021/jm00128a017, PMID: 2754702; settings: pH 7.4
[37] = method code SF, from DOI: 10.1016/0006-2952(79)90429-5, PMID: 444298
[38] = method code SF-RC, from DOI: 10.1021/jm070791g.s001, PMID: 17960926
[39] = not given; remark: listed apart in the source
[40] = not given; remark: listed apart in the source
[41] = from Bundgaard, H.; Hansen, A.; Larsen, C. (1979). Prodrugs as drug delivery systems. VII. Rapid cyclization of methyldiethylthiomalonurate to thiobarbital in aqueous solution. Archiv der Pharmazie - …; settings: pH 3.5
[42] = method code SF-CR+AS, from Korenman, I.; Lineva, S.; Gezikova, N. (1978). Extraction of naphthol-sulfonic acids from aqueous solution. Zh. Prikl. Khim., 51(4)869-871.
[43] = method code SF-AS, from DOI: 10.2116/analsci.13.897; settings: pH 2.0
[44] = method code SF-AS, from DOI: 10.1002/ps.2780370107; settings: pH 0.0
[45] = method code SF-AS, from DOI: 10.2307/3575639, PMID: 7313077; settings: pH 7.4
[46] = not given; remark: listed apart in the source

`Nc1ccc(S(=O)(=O)Nc2cnc(Cl)cn2)cc1` showed a logP [1] of 0.25.
Molecule `Oc1ccc2cccc(O)c2c1` has a logD [2] of 1.94.
`Nc1ncnc2c1ncn2[C@@H]1O[C@@H]2COP(=O)(O)O[C@H]2[C@H]1O` gave a logD [3] of -2.96.
Molecule `CCCCCC(CCO)C1N=N1` (configuration not stated) has a logP of 2.52.
`Cc1c(O)c(=O)ccn1C(C)C` showed a logD [4] of 0.05.
`CCNc1nc(Cl)nc(NC(C)(C)C#N)n1` showed a logP [5] of 2.18.
In the case of `CCCOc1ccc(O)cc1`, the logP [6] is reported as 2.31.
With `CC(=O)N(C)S(=O)(=O)c1ccc(C)cc1` the logD [7] was 1.73.
With `C/C(=C\c1ccccc1)C(=O)O` the logD [8] was 2.58.
In the case of `CNC(=S)NCCSCc1cncn1C`, the logD [9] is reported as 0.32.
`CC(=O)Nc1ccc(C=NNC(N)=S)cc1` showed a logD [10] of 1.7.
Work on `Cc1ccc(C)c(O)c1C` yielded a logP [11] of 2.67.
For `CNC(=S)NCCCCc1c[nH]cn1`, the logD [12] was 0.51.
Molecule `N=c1c2ncn([C@@H]3O[C@H](CO)C[C@@H]3F)c2ncn1O` has a logD [13] of -1.38.
In the case of `Cc1cn([C@H]2C[C@H](F)[C@@H](CO)O2)c(=O)[nH]c1=O`, the logP [14] is reported as -0.3.
`ClC1(Cl)C2(Cl)C3(Cl)C4(Cl)C(Cl)(Cl)C5(Cl)C3(Cl)C1(Cl)C5(Cl)C24Cl` (configuration not stated) showed a logP [15] of 6.69.
With `Cc1ccc(C(C)C)c(Cl)c1Cl` the logP [16] was 5.5.
`Cc1nc2ccccn2c(=O)c1C` showed a logD [17] of 1.14.
With `CCCCCC(=O)N(C)CC(=O)O` the logD [18] was 1.14.
`CNC(=O)Oc1cc(C)c(C)cc1Cl` showed a logP [19] of 2.3.
Work on `O=Nc1ccc2ccccc2c1O` yielded a logD [20] of 2.57.
With `Clc1cc(Cl)cc(C2(CC(Cl)(Cl)Cl)CO2)c1` (configuration not stated) the logP [21] was 4.34.
In the case of `CC(C)Nc1nc(Cl)nc(NC2CC2)n1`, the logP [22] is reported as 3.06.
`CCCCc1ccncc1` showed a logP [23] of 3.13.
In the case of `Cc1c(COC(CO)CF)[nH]c(=O)[nH]c1=O` (configuration not stated), the logD [24] is reported as -0.87.
`CCCc1ccc(N)cc1` gave a logD [25] of 2.4.
With `CCNC(=O)c1cc(Cl)cc(C)c1O` the logD [26] was 3.55.
For `Cc1cc(=O)oc2cc(O)ccc12`, the logD [27] was 1.9.
`CCCOC(=O)C1(C)CCC=[N+]1[O-]` (configuration not stated) showed a logP [28] of -0.3.
For `COc1cc(C=O)c(OC)c(OC)c1`, the logP [29] was 1.91.
`CC(C)(C#N)Nc1nc(Cl)nc(NC2CC2)n1` gave a logP [30] of 1.99.
With `COC(=O)c1ccc(CN(C)N=O)cc1` the logP [31] was 1.21.
Work on `Cc1cc(C)c(N)cc1C` yielded a logD [32] of 2.29.
`ClC1=C(Cl)[C@]2(Cl)C3C(Cl)C(Cl)C(Cl)C3[C@@]1(Cl)C2(Cl)Cl` (some centres not stated) gave a logP [33] of 6.22.
`CC(=O)c1ccc(NC(=O)N(C)N=O)cc1` gave a logD [34] of 0.26.
`CCCCOCCOCCSC#N` gave a logP [35] of 1.68.
Work on `Nc1nc(N)c2ncn([C@H]3C=C[C@@H](CO)O3)c2n1` yielded a logD [36] of -0.48.
With `O=NN(CCCl)C(=O)N[C@@H]1O[C@H](CO)[C@@H](O)[C@H](O)[C@H]1O` the logP [37] was -1.02.
In the case of `O=c1[nH]c(=O)n([C@H]2C=C[C@@H](CO)C2)cc1I`, the logP [38] is reported as 0.29.
In the case of `NC(=O)c1cn(Cc2c(F)cccc2F)nn1`, the logP [39] is reported as 0.88.
For `O=C(O)/C=C/C(=O)c1ccccc1`, the logP [40] was 1.53.
`CCC(CC)(C(=O)NC(N)=S)C(=O)OC` showed a logD [41] of 1.82.
Work on `O=S(=O)(O)c1ccc(O)c2ccccc12` yielded a logP [42] of -0.44.
Molecule `CCC(C(=O)O)c1ccccc1` (configuration not stated) has a logD [43] of 2.47.
In the case of `CCOP(=O)(O)Cc1ccc(Cl)cc1`, the logD [44] is reported as 1.6.
For `CNC(=O)c1cc(N2CC2)c([N+](=O)[O-])cc1[N+](=O)[O-]`, the logD [45] was 0.44.
`CC(C)N1C(=O)c2ccccc2NS1(=O)=O` gave a logP [46] of 1.95.
